Reference: ChEMBL document CHEMBL1201862, “PubChem BioAssay data set” (2004)
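Assay format: 96-well plates, 48-hour exposure. GI50 marks 50% less growth.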 Activity calls are given as the source filed them. Rule as the data show it: active = GI50 up to about 1.1 µM and inactive = higher.

Key:
Assay in all cases: NCI anticancer screen, dose series, 48 h
U-251 = test system: U-251
LOX IMVI = test system: LOX IMVI
SNB-19 = test system: SNB-19
SF-539 = test system: SF-539
HOP-92 = test system: HOP-92
KM12 = test system: KM12
UACC-62 = test system: UACC-62
SR = test system: SR
ACHN = test system: ACHN
UO-31 = test system: UO-31
SF-268 = test system: SF-268
EKVX = test system: EKVX
K562 = test system: K562
SK-OV-3 = test system: SK-OV-3
SF-295 = test system: SF-295
OVCAR-3 = test system: OVCAR-3

Row | SMILES | GI50 (U-251) | GI50 (LOX IMVI) | GI50 (SNB-19) | GI50 (SF-539) | GI50 (HOP-92) | GI50 (KM12) | GI50 (UACC-62) | GI50 (SR) | GI50 (ACHN) | GI50 (UO-31) | GI50 (SF-268) | GI50 (EKVX) | GI50 (K562) | GI50 (SK-OV-3) | GI50 (SF-295) | GI50 (OVCAR-3)
1 | CCCN1CC=CCC1 | > 100 µM (inactive) | > 100 µM (inactive) | > 100 µM (inactive) | > 100 µM (inactive) | > 100 µM (inactive) | > 100 µM (inactive) | > 100 µM (inactive) | > 100 µM (inactive) | > 100 µM (inactive) | > 100 µM (inactive) | > 100 µM (inactive) | > 100 µM (inactive) | < 0.01 µM (active) | > 100 µM (inactive) | > 100 µM (inactive) | > 100 µM (inactive)
2 | COC(=O)C(=O)C(C(C)=O)C(=O)NCc1ccccc1 (stereo not given) | 82.2 µM (inactive) | 50.1 µM (inactive) | > 100 µM (inactive) | > 100 µM (inactive) | > 100 µM (inactive) | > 100 µM (inactive) | > 100 µM (inactive) | > 100 µM (inactive) | > 100 µM (inactive) | > 100 µM (inactive) | > 100 µM (inactive) | > 100 µM (inactive) | > 100 µM (inactive) | – | > 100 µM (inactive) | > 100 µM (inactive)
3 | CCC1CN2CCc3c([nH]c4ccccc34)C2C[C@@H]1CC(=O)N(C)C (stereo not given in full) | > 100 µM (inactive) | > 100 µM (inactive) | > 100 µM (inactive) | > 100 µM (inactive) | 51.6 µM (inactive) | > 100 µM (inactive) | – | 78.7 µM (inactive) | > 100 µM (inactive) | > 100 µM (inactive) | > 100 µM (inactive) | > 100 µM (inactive) | > 100 µM (inactive) | 39.6 µM (inactive) | > 100 µM (inactive) | > 100 µM (inactive)
4 | Cc1cc(N(CCC#N)CCC#N)ccc1/C=C1N=C(/C=C/c2ccccc2)N(c2ccc(S(N)(=O)=O)cc2)C\1=O | > 100 µM (inactive) | > 100 µM (inactive) | > 100 µM (inactive) | > 100 µM (inactive) | > 100 µM (inactive) | > 100 µM (inactive) | > 100 µM (inactive) | > 100 µM (inactive) | > 100 µM (inactive) | > 100 µM (inactive) | > 100 µM (inactive) | – | > 100 µM (inactive) | > 100 µM (inactive) | > 100 µM (inactive) | > 100 µM (inactive)
5 | Cc1cc(Cl)ccc1NC(=O)C(=O)Cc1occc(=O)c1O | > 100 µM (inactive) | > 100 µM (inactive) | > 100 µM (inactive) | > 100 µM (inactive) | > 100 µM (inactive) | > 100 µM (inactive) | > 100 µM (inactive) | > 100 µM (inactive) | > 100 µM (inactive) | > 100 µM (inactive) | > 100 µM (inactive) | > 100 µM (inactive) | > 100 µM (inactive) | > 100 µM (inactive) | > 100 µM (inactive) | –
6 | COc1ccc2oc3c4c2c1CCC4CCC3=O (stereo not given) | > 100 µM (inactive) | > 100 µM (inactive) | > 100 µM (inactive) | > 100 µM (inactive) | 55.7 µM (inactive) | > 100 µM (inactive) | > 100 µM (inactive) | > 100 µM (inactive) | > 100 µM (inactive) | 25.2 µM (inactive) | 85.9 µM (inactive) | > 100 µM (inactive) | > 100 µM (inactive) | > 100 µM (inactive) | > 100 µM (inactive) | > 100 µM (inactive)
7 | COc1ccc(/C=C\c2cc(OC)c3c(c2)OCO3)c(O)c1O | 6.05 µM (inactive) | 4.53 µM (inactive) | 4.74 µM (inactive) | 2.08 µM (inactive) | 5.55 µM (inactive) | 5.62 µM (inactive) | 3.33 µM (inactive) | 3.78 µM (inactive) | 11.2 µM (inactive) | 5.87 µM (inactive) | 4.47 µM (inactive) | 11.7 µM (inactive) | 4.14 µM (inactive) | 18.6 µM (inactive) | 8.3 µM (inactive) | 4.78 µM (inactive)
8 | Cc1ccc(Oc2ccc(C)cc2N)cc1 | 30.5 µM (inactive) | > 100 µM (inactive) | > 100 µM (inactive) | > 100 µM (inactive) | 32.3 µM (inactive) | > 100 µM (inactive) | > 100 µM (inactive) | 57.9 µM (inactive) | – | 34.8 µM (inactive) | 97.7 µM (inactive) | 71 µM (inactive) | 60.8 µM (inactive) | > 100 µM (inactive) | 96.4 µM (inactive) | 36 µM (inactive)
9 | COc1ccc2nc(-c3ccc(OCc4ccccc4)cc3)ccc2c1 | – | > 100 µM (inactive) | > 100 µM (inactive) | > 100 µM (inactive) | > 100 µM (inactive) | > 100 µM (inactive) | > 100 µM (inactive) | > 100 µM (inactive) | > 100 µM (inactive) | > 100 µM (inactive) | > 100 µM (inactive) | > 100 µM (inactive) | > 100 µM (inactive) | > 100 µM (inactive) | > 100 µM (inactive) | > 100 µM (inactive)
10 | Oc1cc(-c2ccccn2)nc2cccc(F)c12 | – | 89.9 µM (inactive) | > 100 µM (inactive) | > 100 µM (inactive) | > 100 µM (inactive) | > 100 µM (inactive) | 95.3 µM (inactive) | > 100 µM (inactive) | > 100 µM (inactive) | > 100 µM (inactive) | – | > 100 µM (inactive) | > 100 µM (inactive) | > 100 µM (inactive) | > 100 µM (inactive) | > 100 µM (inactive)
11 | O=C(Cc1ccccc1)N/N=C(\C1=Nc2ccc([N+](=O)[O-])cc2NC1O)C(O)c1ccc([N+](=O)[O-])cc1 (stereo not given) | > 100 µM (inactive) | 25.8 µM (inactive) | > 100 µM (inactive) | > 100 µM (inactive) | > 100 µM (inactive) | – | 54 µM (inactive) | > 100 µM (inactive) | 78 µM (inactive) | 52.8 µM (inactive) | > 100 µM (inactive) | > 100 µM (inactive) | 28.2 µM (inactive) | > 100 µM (inactive) | 53.1 µM (inactive) | > 100 µM (inactive)
12 | Cc1c(C(=O)/C=C/c2ccco2)[n+]([O-])c2ccccc2[n+]1[O-] | – | > 100 µM (inactive) | > 100 µM (inactive) | > 100 µM (inactive) | 45.4 µM (inactive) | > 100 µM (inactive) | > 100 µM (inactive) | 55.2 µM (inactive) | > 100 µM (inactive) | > 100 µM (inactive) | > 100 µM (inactive) | > 100 µM (inactive) | 56.4 µM (inactive) | > 100 µM (inactive) | > 100 µM (inactive) | > 100 µM (inactive)
13 | CC1C2=CC=C(O2)C(C)(C)C2=CC=C(O2)C(C)(C)C2=CC=C(O2)C(C)(C)C2=CC=C1O2 | > 100 µM (inactive) | > 100 µM (inactive) | > 100 µM (inactive) | > 100 µM (inactive) | 18.9 µM (inactive) | > 100 µM (inactive) | – | > 100 µM (inactive) | > 100 µM (inactive) | – | > 100 µM (inactive) | > 100 µM (inactive) | > 100 µM (inactive) | > 100 µM (inactive) | > 100 µM (inactive) | –
